From US8722052B2, “Vaccinia virus protein A46 peptide and use thereof” (priority 2008, dated 2014) come the findings set out here.

Data set [1] deals with TLR4. The data set is described as follows: LPS-induced TNFα in primary human PBMC, ELISA. The format is cell-based. As to conditions: 6 h; for inhibition of LPS-induced hTNFα production: peptide 1, 5 or 25 μM 1 h before 10 ng/ml LPS; for inhibitory potential compared to parental A464 (alanine scan): peptide 5 μM, 10 ng/ml LPS. Here is the method: FIGS. 13A and B are bar charts showing the effect of A467 and A464 on LPS-induced TNFα production and on cell viability in primary human cells. Peripheral blood mononuclear cells (PBMCs) were seeded in 96 well plates (1 ×10^6 cells/ml) 24 hours before treatment. A467 (SEQ ID NO. 23) and A464 (SEQ ID NO. 20) were added to the cells at 1, 5 and 25 μM 1 hour before stimulating with 10 ng/ml LPS. The peptides were added into the unstimulated control wells at 25 μM. Supernatants were collected 6 hours after stimulation and assayed for TNFα production by ELISA (A). The cells were assayed for viability by the MTT assay (B). No peptides were added to the control wells (black bars). Data is representative of at least three experiments each performed in triplicate and is expressed as mean±s.d;
(§1) FIGS. 14A and B are bar charts showing the comparison of the inhibitory effect of the L- and D-forms of A464 on LPS-induced TNFα in primary human and murine cells. PBMC (1×10^6 cells/ml, (A)) or immortalised murine macrophages (1.5×10^5 cells/ml, (B)) were seeded in 96 well plates 24 hours before treatment. L-form and D-form A464 peptides (with the 9R delivery peptide on the C-terminus, SEQ ID NO. 20) were added to the cells at a concentration of 1, 5 or 25 μM 1 hour before stimulating with 10 ng/ml LPS. Supernatants were collected 6 hours after stimulation and assayed for either human (A) or murine (B) TNFα production by ELISA. No peptides were added to the control wells (black bars). Data is representative of at least three experiments each performed in triplicate and is expressed as mean±s.d;
(§2) FIGS. 15A and B are bar charts showing the effect of the D-form A464 peptide with the TAT delivery sequence on LPS induced TNFα in primary human and murine cells. PBMC (A) and immortalised murine macrophages (B) were seeded in 96 well plates 24 hours before treatment. D-form of A467 (SEQ ID NO. 37) and A464 (SEQ ID NO. 36) with the TAT delivery sequence were added to the cells at a concentration of 1, 5 or 25 μM 1 hour before stimulating with 10 ng/ml LPS. The peptides were added into the unstimulated control wells at 25 μM. Supernatants were collected 6 hours after stimulation and assayed for either human (A) or murine (B) TNFα production by ELISA. No peptides were added to the control wells (black bars). Data is representative of at least three experiments each performed in triplicate and is expressed as mean±s.d;
(§3) FIGS. 16A and B are bar charts showing the effect of attaching 9R to the N-terminus of A464 on LPS-induced TNFα in primary human and murine cells. Immortalised murine macrophages (A) and PBMC (B) were seeded in 96 well plates 24 hours before treatment. L-form of A467 (SEQ ID NO. 39) and A464 (SEQ ID NO. 38) with the 9R-delivery sequence at the N-terminus were added to the cells at a concentration of 1, 5 or 25 μM 1 hour before stimulating with 10 ng/ml LPS. The peptides were added into the unstimulated control wells at […]. Supernatants were collected 6 hours after stimulation and assayed for either murine (A) or human (B) TNFα production by ELISA. No peptides were added to the control wells (black bars). Data is representative of at least three experiments each performed in triplicate and is expressed as mean±s.d;
FIGS. 17A and B are bar charts showing the effect of the D-form A464 with 9R at the N-terminus on LPS-induced TNFα in primary human and murine cells. Immortalised murine macrophages (A) and PBMC (B) were seeded in 96 well plates 24 hours before treatment. D-form of A467 (SEQ ID NO. 39) and A464 (SEQ ID NO. 38) peptides with the 9R-delivery sequence at N-terminus were added to the cells at a concentration of 1, 5 or 25 μM 1 hour before stimulating with 10 ng/ml LPS. The peptides were added into the unstimulated control wells at 25 μM. Supernatants were collected 6 hours after stimulation and assayed for either murine (A) or human (B) TNFα production by ELISA. No peptides were added to the control wells (black bars). […]
(In an ELISA, binding on a coated surface is turned into a signal by an enzyme label.)

Data set [2] addresses T1, TLR4 (Mus musculus, UniProt Q9QUK6).
T1 sequence (Q9QUK6 26-835): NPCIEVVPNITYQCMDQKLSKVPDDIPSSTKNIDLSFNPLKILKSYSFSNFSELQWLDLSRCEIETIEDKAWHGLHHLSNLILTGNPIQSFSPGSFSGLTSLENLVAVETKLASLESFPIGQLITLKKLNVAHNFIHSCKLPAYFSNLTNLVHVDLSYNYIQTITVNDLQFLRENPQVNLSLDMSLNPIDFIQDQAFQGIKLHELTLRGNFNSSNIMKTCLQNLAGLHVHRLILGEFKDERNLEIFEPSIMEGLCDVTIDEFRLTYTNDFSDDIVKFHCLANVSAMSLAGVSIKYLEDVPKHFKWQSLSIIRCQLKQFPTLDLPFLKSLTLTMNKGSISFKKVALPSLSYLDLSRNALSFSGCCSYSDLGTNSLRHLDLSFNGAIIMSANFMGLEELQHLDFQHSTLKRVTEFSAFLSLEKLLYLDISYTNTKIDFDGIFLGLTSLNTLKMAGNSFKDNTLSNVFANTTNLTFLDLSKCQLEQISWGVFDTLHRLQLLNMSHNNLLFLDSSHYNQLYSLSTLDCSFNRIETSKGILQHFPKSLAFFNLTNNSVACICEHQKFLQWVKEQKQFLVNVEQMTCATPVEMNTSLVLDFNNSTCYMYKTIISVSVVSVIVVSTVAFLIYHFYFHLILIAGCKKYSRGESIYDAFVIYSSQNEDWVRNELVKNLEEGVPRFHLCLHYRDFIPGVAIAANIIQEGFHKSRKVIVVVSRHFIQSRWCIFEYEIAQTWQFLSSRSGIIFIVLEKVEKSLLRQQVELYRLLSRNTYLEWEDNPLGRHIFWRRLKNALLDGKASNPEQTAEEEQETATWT
T1 sequence (Q9JHF9 19-160 partner): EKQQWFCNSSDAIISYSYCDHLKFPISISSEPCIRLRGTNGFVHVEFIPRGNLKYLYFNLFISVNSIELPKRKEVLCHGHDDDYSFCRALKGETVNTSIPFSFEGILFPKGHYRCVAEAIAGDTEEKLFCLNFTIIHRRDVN
The data set is described as follows: LPS-induced TNFα in immortalised murine macrophages, ELISA. The format is cell-based. Also on record: endogenous in cells; immortalised murine bone-marrow-derived macrophages. The note with it: 6 h; for inhibition of LPS-induced mTNFα production: peptide 1, 5 or 25 μM 1 h before 10 ng/ml LPS. Here is the method:
as §1, §2, §3
FIGS. 17A and B are bar charts showing the effect of the D-form A464 with 9R at the N-terminus on LPS-induced TNFα in primary human and murine cells. Immortalised murine macrophages (A) and PBMC (B) were seeded in 96 well plates 24 hours before treatment. D-form of A467 (SEQ ID NO. 39) and A464 (SEQ ID NO. 38) peptides with the 9R-delivery sequence at N-terminus were added to the cells at a concentration of 1, 5 or 25 μM 1 hour before stimulating with 10 ng/ml LPS. The peptides were added into the unstimulated control wells at 25 μM. Supernatants were collected 6 hours after stimulation and assayed for either murine (A) or human (B) TNFα production by ELISA. No peptides were added to the control wells (black bars). Data is representative of at least three experiments each performed in triplicate and is expressed as mean±s.d;
FIGS. 18A and B are bar charts showing the effect of shortened A464 peptides with deletions of N- and C-terminal amino acids on LPS-induced TNFα in murine macrophages. Immortalised murine macrophages were seeded in 96 well plates (1.5×10^5 cells/ml) 24 hours before treatment. A464 peptides with a deletion of one (N-1) (SEQ ID NO. 40) or two (N-2) (SEQ ID NO. 41) amino acids from the N-terminus (A), or three (C-3) (SEQ ID NO. 42) or six (C-6) (SEQ ID NO. 43) amino acids from the C-terminus (B), were added to the cells at a concentration of 1, 5 or 25 μM 1 hour before stimulating with 10 ng/ml LPS. Peptides were added to the control wells at 25 μM. […]

In another data set the test system is cell viability. The data set is described as follows: MTT cell viability assay, more detailed investigation of screening hits. The note with it: cell type not stated. The format is cell-based. Here is the method: Cell viability was measured by assessing mitochondrial function using an MTT (3-(4,5-Dimethylthiazol-2-yl)-2,5-diphenyltetrazolium bromide) assay. Cells were seeded into 96 well plates and treated with peptides and agonists as described above in relation to the Figs. Wells containing medium only served as a blank control. To terminate treatment of cells, medium was removed and the cells were washed once with PBS. 200 μl per well of 1 mg/ml MTT in PBS was added directly to the cells and the plates were incubated at 37° C. for 14-16 hrs in the dark. MTT was then removed and 200 μl per well of dimethyl sulphoxide (DMSO) was added and cells incubated for 20 min at 37° C. in the dark, prior to absorbance being read at 595 nm on a spectrophotometer.
A general note: Formazan colour is commonly taken as a measure of viable cells.

In data set [3] the target is T1, TLR4. The data set is described as follows: LPS-induced TNFα in RAW264.7 cells, ELISA. The format is cell-based, murine. As to conditions: peptide 5 or 25 μM 1 h before 10 ng/ml LPS, 6 h, A464 5 μM as positive control. Also on record: endogenous in cells; host or cells: RAW264.7; immortalised murine bone-marrow-derived macrophages. The procedure: FIGS. 5A and B are bar charts showing the dose-dependent inhibitory effect of A464R on LPS-induced TNFα in murine RAW264.7 cells. A464 (SEQ ID NO. 20) was added to the cells at a concentration of 5, 20 or 50 μM 1 hour before stimulating with 100 ng/ml LPS. Supernatant was collected 24 hours after stimulation and assayed for TNFα by ELISA (A) and cells were assayed for viability by the MTT assay (B.). No peptides were added to the control wells (black bars). Data is representative of at least three experiments each performed in triplicate and is expressed as mean±s.d;
FIGS. 6A and B are bar charts showing the effect of peptides derived from A46 on LPS-induced TNFα in murine RAW264.7 cells. A46 peptides were added to the cells at a concentration of 1 or 5 μM 1 hour before stimulating with 10 ng/ml LPS. Supernatants were collected 6 hours after stimulation and assayed for TNFα by ELISA. No peptides were added into the control wells (black bars). (A) peptides A461-A467 (SEQ ID NO. 17 to 23). (B) peptides A468-A4614 (SEQ ID NO. 24 to 30) (excluding A4610 SEQ ID NO. 26 and A4612 SEQ ID NO. 28). Data is representative of at least two experiments each performed in triplicate and is expressed as mean±s.d;
FIGS. 22 A and B are bar charts showing the effect of short A467 and A464 peptides, with 9R on either N- or C-terminus, on LPS- induced TNFα production in murine RAW264.7 cells. Cells were seeded in 96 well plates (1.5×10^5 cells/ml) 24 hours before treatment. Short A467 and short A464 peptides with the 9R delivery sequence on either the C-terminus (sA464C9R) (SEQ ID NO. 56) (A) or the N-terminus (sA464N9R) (SEQ ID NO. 57) (B) were added to the cells at a concentration of 5 or 25 μM 1 hour before stimulating with 10 ng/ml LPS. Normal full length A467 (SEQ ID NO. 23) and A464 (SEQ ID NO. 20) peptides were added at a concentration of 5 μM as positive controls. Supernatants were collected 6 hours after stimulation with the agonist and assayed for TNFα, by ELISA. No peptides were added to the control wells (black bars). Data is representative of at least three experiments each performed in triplicate and is expressed as mean±s.d;
Cytokine and chemokine production from cells or mouse serum was measured by ELISA using Duoset kits from R&D systems, according to the manufacturer's instructions.

Square brackets hold non-standard residues; d marks the D form. Ends that are not written are not given here.

Turning to “D-A464-TAT ([dK][dY][dS][dF][dK][dL][dI][dL][dA][dE][dY][dY]G[dR][dK][dK][dR][dR][dQ][dR][dR][dR])”, in the data set with TLR4 [1], the “inhibition of LPS-induced hTNFα production” value is listed as “failed to inhibit LPS-induced hTNFα production at 1-25 μM”. The “inhibition of LPS-induced mTNFα production” value with TLR4 [2] is reported as “still inhibited, but only at 5-25 μM”.
For the substance DFVNFVKDMICRRRRRRRRR [Peptide A4610], in the data set on cell viability, the “cell viability (MTT assay)” value was “reduced cell viability”.
For the substance DSGLFDFVNFVRRRRRRRRR [Peptide A469], in the data set with cell viability, the “cell viability (MTT assay)” value is listed as “reduced cell viability”.
With “KYSAKLILAEY-9R (KYSAKLILAEYRRRRRRRRR) [Peptide F4A]”, the “inhibitory potential compared to parental A464 (alanine scan)” value with TLR4 [1] was “reduced inhibitory potential”.
For the substance “KYSFALILAEY-9R (KYSFALILAEYRRRRRRRRR) [Peptide K5A]”, the “inhibitory potential compared to parental A464 (alanine scan)” value in the data set on TLR4 [1] was “reduced inhibitory potential”.
Take KYSFK-9R [Peptide A464C-6]: at TLR4 [2], the “inhibition of LPS-induced mTNFα production” value is reported as “lost its ability to inhibit LPS-induced TNFα production”.
On to “KYSFKAILAEY-9R (KYSFKAILAEYRRRRRRRRR) [Peptide L6A]”, for which, in the data set with TLR4 [1], the “inhibitory potential compared to parental A464 (alanine scan)” value is on record as “reduced inhibitory potential”. Besides, in the data set with TLR4 [2] (peptide 5 μM, 10 ng/ml LPS), the “inhibition compared to A464 (alanine scan)” value was “reduced inhibition”.
Regarding “KYSFKLALAEY-9R (KYSFKLALAEYRRRRRRRRR) [Peptide I7A]”, the “inhibitory potential compared to parental A464 (alanine scan)” value with TLR4 [1] is listed as “reduced inhibitory potential”.
With KYSFKLILAEYRRRRRRRRR [D-A464], the “inhibition of LPS-induced hTNFα production” value with TLR4 [1] was “only blocked TNFα secretion at 25 μM”. In addition, at TLR4 [2], the “inhibition of LPS-induced mTNFα production” value is reported as “complete inhibition at 1”.
In the case of TYLYNKYSFKLRRRRRRRRR [Peptide A463], the “cell viability (MTT assay)” value in the data set on cell viability is recorded as “reduced cell viability”.
With sA464C9R (SFKLILRRRRRRRRR), the “inhibition of LPS-induced TNFα by short peptides” value in the data set with TLR4 [3] is “only when the delivery sequence was at the N-terminus”.
As to sA464N9R (RRRRRRRRRSFKLIL), the “inhibition of LPS-induced TNFα by short peptides” value with TLR4 [3] is recorded as “inhibited LPS-induced TNFα production as potently as A464 (SEQ ID No. 20) at 5 μM”.
